Measured values published in article PMC8289695 (Cell Reports, 2021).
Read-outs that look alike come from different tables or passages of the source.

Legend:
[1] = test system: SARS-CoV-2; format: cell-based, strain USA_WA1/2020; details: VPS34-IN1 5 μM, orlistat 500 μM, triacsin C 5 μM, TOFA 50 μM, 2-bromopalmitate 50 μM, A922500 30 μM, remdesivir 1 μM
[2] = test system: SARS-CoV-2; experiment: microbe, parasite or virus in culture; format: cell-based, strain USA_WA1/2020
[3] = test system: SARS-CoV-2; format: cell-based, strain USA_WA1/2020
[4] = test system: Vero E6 cells; details: concentrations below 16.67 μM of 10-point dose response
[5] = test system: SARS-CoV-2; experiment: microbe, parasite or virus in culture; format: cell-based, strain USA_WA1/2020; details: Severe acute respiratory syndrome coronavirus 2, Calu-3, read-out: IC50, infectious virus production (plaque assay)
[6] = test system: SARS-CoV-2; format: cell-based, strain USA_WA1/2020; remark: listed apart in the source
[7] = target: VPS34 (Homo sapiens, UniProt Q8NEB9); format: cell-based; details: Huh7 cells, 24 h treatment; VPS34-IN1 2 μM, PIK-III 5 μM, SAR405 5 μM, Compound 19 5 μM, Orlistat 200 μM
[8] = read-out: IC50, infectious virus production (focus forming assay)

Sequence of VPS34 (Q8NEB9 whole entry): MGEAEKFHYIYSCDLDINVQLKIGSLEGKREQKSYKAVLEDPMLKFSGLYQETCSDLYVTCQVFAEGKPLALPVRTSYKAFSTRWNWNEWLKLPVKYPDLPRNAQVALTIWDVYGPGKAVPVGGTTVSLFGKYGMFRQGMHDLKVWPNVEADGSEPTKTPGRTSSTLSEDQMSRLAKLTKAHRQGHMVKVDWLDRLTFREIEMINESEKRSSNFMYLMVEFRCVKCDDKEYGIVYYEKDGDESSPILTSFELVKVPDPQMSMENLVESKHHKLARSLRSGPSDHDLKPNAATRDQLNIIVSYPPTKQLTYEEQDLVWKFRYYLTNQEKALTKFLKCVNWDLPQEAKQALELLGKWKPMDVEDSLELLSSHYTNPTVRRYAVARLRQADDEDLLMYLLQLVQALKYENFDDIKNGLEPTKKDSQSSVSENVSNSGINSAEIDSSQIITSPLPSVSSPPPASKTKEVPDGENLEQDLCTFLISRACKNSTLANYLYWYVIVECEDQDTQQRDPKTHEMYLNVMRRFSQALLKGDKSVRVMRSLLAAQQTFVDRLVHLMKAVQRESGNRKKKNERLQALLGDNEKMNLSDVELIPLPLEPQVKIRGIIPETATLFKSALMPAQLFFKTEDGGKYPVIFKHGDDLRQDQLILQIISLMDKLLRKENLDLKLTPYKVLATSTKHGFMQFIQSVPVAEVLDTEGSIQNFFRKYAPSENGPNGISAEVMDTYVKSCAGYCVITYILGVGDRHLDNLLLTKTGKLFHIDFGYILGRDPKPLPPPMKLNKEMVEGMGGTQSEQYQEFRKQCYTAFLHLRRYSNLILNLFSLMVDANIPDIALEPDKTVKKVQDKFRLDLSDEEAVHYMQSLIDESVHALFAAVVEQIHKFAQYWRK

CCCCCCCCCCCCCCC(Br)C(=O)O (stereo not shown) [2-bromopalmitate]
dsRNA and SARS-CoV-2 N distribution (replication centers) [1]: fewer but larger foci positive for both markers | concentrations at which infectious virus production was inhibited [2]: greater than 10 μM | IC50 [2, 8]: 23000 nM | viral RNA levels [3]: reduced RNA levels at both MOI 0.01 and 1

O=C(Nc1ccccc1)Nc1ccc(-c2ccc(C(=O)[C@@H]3CCC[C@H]3C(=O)O)cc2)cc1 [A922500]
dsRNA and SARS-CoV-2 N distribution (replication centers) [1]: loss of these distinct puncta and dispersion of dsRNA and SARS-CoV-2 N | IC50 [2, 8]: 4020 nM

C=C1C(=O)OC(CCCCCCCC)C1C(=O)O (stereo not shown) [C75]
IC50 [2, 8]: 22800 nM

Nc1ncc(-c2ccnc(Nc3ccncc3)n2)c(CC2CC2)n1 [PIK-III]
toxicity at the remaining concentrations (resistance 1-20 hpi) [4]: no toxicity was observed | IC50 [5]: 120 nM

C[C@@H]1COCCN1c1cc(=O)n2c(n1)N(Cc1cncc(Cl)c1)[C@H](C(F)(F)F)CC2 [SAR405]
IC50 ([2]; Severe acute respiratory syndrome coronavirus 2, Calu-3, read-out: IC50, infectious virus production (focus forming assay)): 376 nM

CCCCCCCCCCCCCCOc1ccc(C(=O)O)o1 [TOFA]
dsRNA and SARS-CoV-2 N distribution (replication centers) [1]: loss of these distinct puncta and dispersion of dsRNA and SARS-CoV-2 N | IC50 [2, 8]: 1340 nM

CC(C)(O)CNc1ncc(-c2ccnc(Nc3ccnc(Cl)c3)n2)c(CC2CC2)n1 [VPS34-IN1]
dsRNA and SARS-CoV-2 N distribution (replication centers) [1]: loss of these distinct puncta and dispersion of dsRNA and SARS-CoV-2 N | toxicity at the remaining concentrations (resistance 1-20 hpi) [4]: no toxicity was observed | IC50 [5]: 550 nM | viral RNA levels [3]: reduced RNA levels at both MOI 0.01 and 1

CCOC(=O)[C@@]1(CCCCCCOc2ccc(Cl)cc2)CO1 [etomoxir]
inhibition of SARS-CoV-2 (focus forming assay) [2]: Neither compound showed any inhibition

CCCCCCCCCCC[C@@H](C[C@@H]1OC(=O)[C@H]1CCCCCC)OC(=O)[C@H](CC(C)C)NC=O [orlistat]
inhibition of viral cytopathic effects at highest concentration [6]: complete inhibition was not achieved | dsRNA and SARS-CoV-2 N distribution (replication centers) [1]: loss of these distinct puncta and dispersion of dsRNA and SARS-CoV-2 N | IC50 [5]: 21200 nM | viral RNA levels [3]: reduced RNA levels at both MOI 0.01 and 1 | effect on GFP-2xFYVE localization to endosomes (puncta) [7]: did not affect GFP-2xFYVE localization

CCC(CC)COC(=O)[C@H](C)N[P@](=O)(OC[C@H]1O[C@@](C#N)(c2ccc3c(N)ncnn23)[C@H](O)[C@@H]1O)Oc1ccccc1 [remdesivir]
dsRNA and SARS-CoV-2 N distribution (replication centers) [1]: distribution of N and dsRNA similar to the DMSO control | RNA synthesis at earlier time points (4 and 10 hpi) [3]: inhibited RNA synthesis at earlier time points as well

CCC/C=C/C/C=C/C=C/C=N/NN=O [triacsin C]
dsRNA and SARS-CoV-2 N distribution (replication centers) [1]: fewer but larger foci positive for both markers | IC50 [5]: 40 nM | viral RNA levels [3]: reduced RNA levels at both MOI 0.01 and 1

COc1ccc(CN2CCNCC2)c(OC)c1OC [trimetazidine]
inhibition of SARS-CoV-2 (focus forming assay) [2]: Neither compound showed any inhibition
